molecular target: T1, CCR2 (Homo sapiens, UniProt P41597); experiment: CCR2 receptor membrane binding assay ([125I]MCP-1, THP-1 membranes, SPA beads); conditions: dissociation constant hKi; THP-1 cell membranes, [125I]MCP-1, bound radioactivity after 8 h
T1 construct: Membranes were prepared from THP-1 cells; endogenous in cells; host or cells: THP-1 (human acute monocytic leukaemia cells), membrane preparation
T1 sequence (P41597 1-360 isoform P41597-2): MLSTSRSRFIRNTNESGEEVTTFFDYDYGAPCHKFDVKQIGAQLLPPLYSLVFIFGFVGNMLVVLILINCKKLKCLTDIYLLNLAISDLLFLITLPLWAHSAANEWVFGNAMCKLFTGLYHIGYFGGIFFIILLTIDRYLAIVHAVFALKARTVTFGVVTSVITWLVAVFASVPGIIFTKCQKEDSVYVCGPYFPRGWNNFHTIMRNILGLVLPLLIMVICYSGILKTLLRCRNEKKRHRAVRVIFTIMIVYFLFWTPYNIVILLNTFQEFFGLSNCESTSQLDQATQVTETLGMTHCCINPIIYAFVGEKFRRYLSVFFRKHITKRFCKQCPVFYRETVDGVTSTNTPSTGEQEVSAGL
Method: The above exemplary substances have been tested for binding to CCR2 using a binding assay as outlined herein below:
THP-1 cells (human acute monocytic leukaemia cells) were cultured under standardized conditions at 37° C. and 5% CO2 in a humidified incubator. THP-1 cells were cultivated in RPMI 1640 medium (Gibco 21875) containing 1% MEM-NEAA (Gibso 11140) 2 mM L-glutamine, 1.5 g/L sodium bicarbonate, 4.5 g/L glucose, 10 mM HEPES and 1.0 mM sodium pyruvate, 90%; 10% fetal calf serum (FCS Gibco 10500-064).
Membranes were prepared from THP-1 cells. THP-1 cells were centrifuged at 300×g at 4° C. for 10 min. The cell pellet was resuspendet in Phosphate Buffer Saline (PBS, including 10 μM Pefabloc and a protease inhibitor mix ‘complete’, Boehringer Mannheim (1 tablet/50 ml)), to a concentration of […]. The membrane preparation was performed by disrupting the cells by nitrogen […] (at 50 bar, for 1 h) in a “Nitrogen Bombe” (Parr Instrument). Cell debris was removed by centrifugation (800×g at 4° C., 1 min). The supernatant was centrifuged at 80000×g, 4° C. for 30 min to sediment the cell membranes. Usually 50 mg of protein (Bradford assay) were yielded from 1×10E9 cells. The membranes were resuspendet in 25 mM HEPES, 25 mM MgCl2, 1 mM CaCl2, 10% Glycerine for storage in aliquots at −80° C. in 25 mM HEPES, 25 mM MgCl2, 1 mM CaCl2, 10% Glycerine and stored at −80° C.
Receptor Membrane Binding Assay:
Perkin Elmer NEX 332 Jod 125 MCP-1, Stock: 2200 Ci/mmol solved in 2000 μl assay buffer, stored at −20° C. THP-1 membrane were adjusted with 25 mM HEPES, pH 7.2; 5 mM MgCl2; 0.5 mM CaCl2; 0.2% BSA assay buffer to a concentration of 2.5 μg/15 μl. Amersham Biosciences PVT-WGA Beads (RPNQ0001) were adjusted with assay buffer to a concentration of 0.24 mg/30 μl. For preparation of the membrane-bead-suspension membranes and beads were incubated for 30 min at RT under rotation (60 rpm) with a ratio of 1:2. Test compounds dissolved in 100% DMSO to a concentration of 10 mM and are further diluted with 100% DMSO to 1 mM. All additional compound dilutions were obtained with assay buffer, final 1% DMSO. Compounds, membrane-bead-suspension and [125I]MCP-1 (ca. 25000 cpm/10 μl) were incubated. Bound radioactivity was determined by scintillation counter after 8 h. Determination of affinity of test compounds (dissociation constant hKi) is calculated by iterative fitting of experimental data using the “easy sys” program, which is based on law of mass action (Schittkowski K. (1994), Numerische Mathematik, Vol. 68, 129-142).

| SMILES | Ki [nM] |
| --- | --- |
| CO[C@H]1COCC[C@H]1NC1CCN(C(=O)c2ncnc(NC[C@H]3CCC[C@@H](c4ccccc4)O3)c2C)CC1 [Example 40] | 26 |
| CO[C@@H]1COCC[C@@H]1NC1CCN(C(=O)c2nc(C(F)(F)F)nc(NC[C@H]3CCC[C@@H](c4ccccc4)O3)c2C)CC1 [Example 53ai] | 1.1 |
| Cc1c(NC[C@@H]2CCC[C@H](c3ccc(C(F)(F)F)cc3)O2)ncnc1C(=O)N1CCC(N2CCC(N(C)S(C)(=O)=O)CC2)CC1 [Example 2] | 151 |
| COc1nc(NC[C@H]2CCC[C@@H](c3ccc(C(F)(F)F)cc3)O2)c(C)c(C(=O)N2CCC(N[C@H]3CCOC[C@H]3OC)CC2)n1 [Example 53ac] | 0.8 |
| COC1CCN(C2CCN(C(=O)c3ncnc(NC[C@@H]4CCC[C@H](c5cccc(C(F)(F)F)c5)O4)c3C)CC2)CC1 [Example 3] | 203 |
| Cc1cccc([C@H]2CCC[C@@H](CNc3nc(C)nc(C(=O)N4CCC(N5CCC(N(C)S(C)(=O)=O)CC5)CC4)c3C)O2)c1 [Example 28] | 658 |
| CO[C@@H]1COCC[C@@H]1NC1CCN(C(=O)c2ncnc(NC[C@@H]3CCC[C@H](c4cccc(C(F)(F)F)c4)O3)c2C)CC1 [Example 45] | 6 |
| Cc1c(NC[C@H]2CCC[C@@H](c3ccc(OC(F)(F)F)cc3)O2)ncnc1C(=O)N1CCC(N2CCC(N(C)S(C)(=O)=O)CC2)CC1 [Example 26] | 6 |
| Cc1ccc([C@@H]2CCC[C@H](CNc3ncnc(C(=O)N4CCC(N5CCC(N(C)S(C)(=O)=O)CC5)CC4)c3C)O2)cc1 [Example 1] | 8 |
| CO[C@@H]1COCC[C@@H]1NC1CCN(C(=O)c2nc(C)nc(NC[C@@H]3CCC[C@H](c4cccc(C)c4)O3)c2C)CC1 [Example 35] | 96 |
| CO[C@@H]1COCC[C@@H]1NC1CCN(C(=O)c2ncnc(NC[C@H]3CCC[C@@H](c4cccc(C(F)(F)F)c4)O3)c2C)CC1 [Example 47] | 94 |
| CO[C@@H]1COCC[C@@H]1NC1CCN(C(=O)c2ncnc(NC[C@H]3CCC[C@@H](c4ccc(C)cc4)O3)c2C)CC1 [Example 29] | 4 |
| Cc1c(NC[C@@H]2CCC[C@H](c3ccc(C(C)(C)C#N)cc3)O2)ncnc1C(=O)N1CCC(N2CCC(N(C)S(C)(=O)=O)CC2)CC1 [Example 28f] | 78 |
| Cc1c(NC[C@@H]2CCC[C@H](c3ccccc3)O2)ncnc1C(=O)N1CCC(N2CCC(N(C)S(C)(=O)=O)CC2)CC1 (single isomer, unassigned) [Example 13] | 486 |

Results, then the compound that gave them:

| Ki [nM] | SMILES |
| --- | --- |
| 9 | Cc1ccc([C@@H]2CCC[C@H](CNc3ncnc(C(=O)N4CCC(N5CCC6(CC5)Cc5ccccc5O6)CC4)c3C)O2)cc1 [Example 53x] |
| 19 | CO[C@@H]1COCC[C@@H]1NC1CCN(C(=O)c2ncnc(NC[C@@H]3CCC[C@H](c4ccc(OC(F)(F)F)cc4)O3)c2C)CC1 [Example 53d] |
| 802 | Cc1ccc(C2CCC[C@H](CNc3ncnc(C(=O)N4CCC(N5CCC(c6cccc(C(=O)O)c6)CC5)CC4)c3C)O2)cc1 (some centres unmarked) [Example 56] |
| 311 | Cc1ccc([C@@H]2CCC[C@H](CNc3ncnc(C(=O)N4CCC(N5CCC(c6cccc(C(=O)O)c6)C5)CC4)c3C)O2)cc1 (some centres unmarked) [Example 55] |
| 1 | COc1nc(NC[C@H]2CCC[C@@H](c3ccc(OC(F)(F)F)cc3)O2)cc(C(=O)N2CCC(N[C@@H]3CCOC[C@@H]3OC)CC2)n1 [Example 53q] |
| 263 | Cc1ccc(C2CCC[C@H](CNc3ncnc(C(=O)N4CCC(N5CCC(c6ccccc6C(=O)O)C5)CC4)c3C)O2)cc1 (some centres unmarked) [Example 59] |
| 1800 | Cc1ccc(C2CCC[C@H](CNc3ncnc(C(=O)N4CCC(N5CCCC(c6cccc(C(=O)O)c6)C5)CC4)c3C)O2)cc1 (some centres unmarked) [Example 57] |
| 0.5 | CO[C@@H]1COCC[C@@H]1NC1CCN(C(=O)c2cc(NC[C@H]3CCC[C@@H](c4ccc(OC(F)(F)F)cc4)O3)nc(C(F)(F)F)n2)CC1 [Example 53l] |
| 16 | CO[C@H]1COCC[C@H]1NC1CCN(C(=O)c2ccnc(NC[C@H]3CCC[C@@H](c4ccc(C)cc4)O3)c2C)CC1 [Example 53e] |
